Consider one molecule from patent publication US6593372B2, “Therapeutic uses for nitric oxide inhibitors” (Cold Spring Harbor Laboratory, priority 1996, dated 2003).

Common to all, as to type: in vivo
The subject of assay [1] is Drosophila melanogaster larvae. Put plainly: Adult fly phenotype (leg segment hypertrophy) after injection of NOS inhibitors into third instar larvae. The settings on record: adults after injection of late third instar larvae. On the procedure: Chemicals were dissolved in Schneider's solution at concentrations of 0.1 M for L-NAME and D-NAME and 0.01M for ETU and mixed with Freund's adjuvant (Sigma) in 1:3 ratio. Amounts of 5-10 nl were microinjectd in staged late third instar using a glass needle.
To test this hypothesis, NOS activity was inhibited by injecting specific NOS inhibitors in the developing larvae at the end of the third instar, several hours before metamorphosis. Most of the larvae completed metamorphosis successfully, giving rise to adult flies within the normal time frame. The resulting adults differed from normal flies in many respects, the most dramatic being enlargements of the appendages and other structures of the fly body. The changes included a) hypertrophy of the demur, tibia and the segments of the tarsus; b) overgrowth of the tissues originating from the genital discs; in extreme cases, these cells contributed to more than one-quarter of the fly body; c) and increase of the overall surface of the wings; d) overgrowth of the cells of tergites and sternites; e) hypertrophy of the humerus; f) occasional duplications of some areas of the eye; g) occasional realformation of genital structures, legs and eyes; and h) occasional ectopic formation of misplaced body structures.
The changes were most profound in, and most often affected the legs of, the adults. […]

The test system of assay [2] is transplanted BM cells, spleen colonies. Put plainly: Hemopoietic colonies in spleens of irradiated mice after BM transplantation and injection of NOS inhibitors (erythroid differentiation). The settings on record: 9-10 days after transplantation. The procedure: To study the formation of cell of the erythroid lineage in the spleen of the irradiated recipient mice, the animals (females of F1 CBA×C57B1 hybrids weighing 22-24 g) were treated with 750 cGy total body irradiation within 3-4 hours before transplantation. This dosage was tested to be enough for complete suppression of hematopoiesis in the irradiated recipient animals. BM cells were flushed from the femurs of syngeneic donors and injected intravenously (10^5 BM cells per mice) in the recipients. The animals received twice a day injections of 100 mg/kg of L-NAME and D-NAME and 10 mg/kg of ETU for 7-10 days. Mice were analyzed 9-10 days after transplantation.
In contrast, when animals were treated with NOS inhibitors after BM transplantation, most of the colonies in the spleen contained undifferentiated blast cells (up to 85% of blast cells colonies and mixed blast erythroid cells colonies). Erythroid colonies comprised only 15% of the total number of colonies, and the megakaryocyte and granulocyte colonies were not detectable. The results were similar with two structurally unrelated NOS inhibitors, confirming the specificity of their action. Thus, prolonged treatment of recipient mice after BM transfer with NOS inhibitor, reversed the ratio of blast cells-containing colonies to the erythroid cells-containing colonies almost 16 fold, effectively preventing erythroid differentiation.

The subject of assay [3] is transplanted BM cells, membrane colonies. The assay can be described thus: Hemopoietic colonies on cellulose acetate membranes in the peritoneal cavity of irradiated mice (myeloid differentiation). The following applies: 7-8 days. The procedure:
To study the formation of cells of the myeloid lineage, cellulose acetate membranes were implanted in the peritoneal cavity of mice. After 7 days, when a layer of fibroblasts had covered the membranes, the mice were irradiated as described above. BM cells from syngeneic donors were injected (10^5 BM cells per mice) in the peritoneal cavity of the recipients. Animals received injections of NOS inhibitors as described above. Membranes with growing colonies were isolated and analyzed 7-8 days later.
The differentiation status of the colonies in the spleen was evaluated by morphological criteria, myeloperoxidase reaction, and by immunohistochemical tests for the presence of receptors to various cytokines, which are present only at specific stages of the myeloid cells' maturation. […] A much smaller fraction contained undifferentiated blasts cells (6%), and a very small fraction of colonies contained erythroid cells (1.3%). In contrast, when animals were treated with NOS inhibitors after BM transplantation, most of the colonies on the membranes (up to 85%) contained and undifferentiated blasts cells. Colonies with differentiated cells of the granulocyte lineage comprised only 15.6% of the total number of colonies, and a negligible fraction of the colonies (<0.5%) contained erythroid cells. The results were similar with two structurally unrelated NOS inhibitors, confirming the specificity of their action. Thus, prolonged treatment of recipient mice after BM transfer with NOS inhibitor, reversed the ratio of blast cells-contiaing colonies to the granulocytic colinies almost 80-fold, effectively preventing myeloid differentiation.

In another assay the test system is BM cells. Put plainly: Hematopoietic markers in BM cells of irradiated mice after injection of NOS inhibitors. The settings on record: 7-10 days after transplantation. The procedure: To study the maturation of hematopoietic cells in the bone marrow of the irradiated recipient mice, the animals were treated as described above and the BM cells from the demurs of syngeneic donors were injected intravenously (10^5 BM cells per mice) in the recipients.
The BM cells were tested for the presence of various growth factor receptors which serve as markers of the differentiation stage and indicate the presence of stem cells and multipotent percursor cells. The BM preparations were tested for cells expressing receptors to HSF (ligand of c-kit), GM-CSF, G-CSF and IL-3.

Some results are limits rather than exact numbers.

As to `COC(=O)[C@H](N)CCCN=C(N)N[N+](=O)[O-]` [D-NAME, D-nitroarginine methyl ester], the “increase of diameter of certain leg segments (hypertrophy, third pair of legs)” value in assay [1] is listed as “not”. Also, in assay [2], the “blast cell and erythroid cells colonies” value is listed as 13%; the erythroid colonies was more than 60%; the granulocyte colonies is listed as 4%; the megakaryocyte colonies is listed as 7.5%. The same molecule showed a blast cell colonies in assay [2] (injections twice a day) of 14%. Further, in assay [3], the blast cell colonies is 6%, the erythroid colonies is 1.3% and the granulocytic colonies is recorded as 92%. The “c-kit positive BM cells” value with BM cells (control 2%) amounted to 7%. Also, in the assay with BM cells (control 7%), the “IL-3-R positive BM cells” value is 12%. Moreover, in the assay on BM cells (control 18%), the “GM-CSF-R positive BM cells” value was 16%. Besides, the “G-CSF-R positive BM cells” value in the assay on BM cells (control 24%) was determined as 19%.
